From the supplement of paper PMC13380429

How the values were obtained:
Conditions in all cases: 72 h
Caco-2 [1] = test: cell viability relative to DMSO; higher = less toxic
Calu-3 [2] = test: as above
HepG2 [3] = test: as above
U2OS [4] = test: as above
Vero E6 [5] = test: as above
Caco-2 [6] = test: relative viability EC50 (midpoint between 100% and the lowest measured viability); higher = less toxic
Calu-3 [7] = test: as above
U2OS [8] = test: as above
Vero E6 [9] = test: as above
Caco-2 [10] = test: drug sensitivity score (DSS) for viability; higher = more toxic; extreme values may be limits of the assay
Calu-3 [11] = test: as above
HepG2 [12] = test: as above
U2OS [13] = test: as above
Vero E6 [14] = test: as above
HepG2 [15] = test: relative viability EC50 (midpoint between 100% and the lowest measured viability); higher = less toxic

| SMILES | cell viability (Caco-2 [1]; 1 nM) | cell viability (Caco-2 [1]; 10 nM) | cell viability (Caco-2 [1]; 100 nM) | cell viability (Caco-2 [1]; 1000 nM) | cell viability (Caco-2 [1]; 10000 nM) | cell viability (Calu-3 [2]; 1 nM) | cell viability (Calu-3 [2]; 10 nM) | cell viability (Calu-3 [2]; 100 nM) | cell viability (Calu-3 [2]; 1000 nM) | cell viability (Calu-3 [2]; 10000 nM) | cell viability (HepG2 [3]; 1 nM) | cell viability (HepG2 [3]; 10 nM) | cell viability (HepG2 [3]; 100 nM) | cell viability (HepG2 [3]; 1000 nM) | cell viability (HepG2 [3]; 10000 nM) | cell viability (U2OS [4]; 1 nM) | cell viability (U2OS [4]; 10 nM) | cell viability (U2OS [4]; 100 nM) | cell viability (U2OS [4]; 1000 nM) | cell viability (U2OS [4]; 10000 nM) | cell viability (Vero E6 [5]; 1 nM) | cell viability (Vero E6 [5]; 10 nM) | cell viability (Vero E6 [5]; 100 nM) | cell viability (Vero E6 [5]; 1000 nM) | cell viability (Vero E6 [5]; 10000 nM) | relative viability EC50 (Caco-2 [6]) | relative viability EC50 (Calu-3 [7]) | relative viability EC50 (U2OS [8]) | relative viability EC50 (Vero E6 [9]) | drug sensitivity score (Caco-2 [10]) | drug sensitivity score (Calu-3 [11]) | drug sensitivity score (HepG2 [12]) | drug sensitivity score (U2OS [13]) | drug sensitivity score (Vero E6 [14]) | relative viability EC50 (HepG2 [15]) |
| --- | --- | --- | --- | --- | --- | --- | --- | --- | --- | --- | --- | --- | --- | --- | --- | --- | --- | --- | --- | --- | --- | --- | --- | --- | --- | --- | --- | --- | --- | --- | --- | --- | --- | --- | --- |
| Cn1cc(-c2cnc3ccc4ccc(CS(=O)(=O)NCc5ccccn5)cc4c(=O)c3c2)cn1 [MK-8033] | 96.4% | 95.6% | 91.8% | 97.9% | 75.1% | 99.8% | 87.8% | 105% | 94.5% | 99.9% | 113% | 93.3% | 110% | 95.3% | 53.8% | 97.6% | 98.7% | 98.7% | 101% | 91.7% | 104% | 98.8% | 104% | 99.4% | 97.7% | > 10 µM | > 10 µM | > 10 µM | > 10 µM | 1.2 | 0 | 3.2 | 0 | 0 |  |
| CCOC(=O)CCNc1cc(N2CCc3ccccc3CC2)nc(-c2ccccn2)n1 [GSK-J4] | 93.2% | 88.2% | 104% | 70.9% | 17.4% | 103% | 89.5% | 96.5% | 97.5% | 21.2% | 103% | 103% | 97.8% | 104% | 33.5% | 97.8% | 97.6% | 99.3% | 94.8% | 5.5% | 93.9% | 101% | 91.7% | 96.8% | 63.2% | 1.28 µM | 2.93 µM | 2.74 µM |  | 8.6 | 4.7 | 3.4 | 6 | 2.3 | 3.45 µM |
| CC#C[C@]1(O)CC[C@H]2[C@@H]3CCC4=CC(=O)CCC4=C3[C@@H](c3ccc(N(C)C)cc3)C[C@@]21C [mifepristone] | 88.8% | 93.4% | 94.1% | 100% | 72% | 96.2% | 103% | 88.7% | 96.3% | 109% | 93.6% | 92.6% | 102% | 90.3% | 99% | 100% | 100% | 100% | 104% | 91.8% | 98% | 101% | 98.4% | 96.8% | 97.6% |  | > 10 µM | > 10 µM | > 10 µM | 1.2 | 0 | 0 | 0 | 0 | > 10 µM |
| CN(C)CC[C@@](O)(c1ccccc1)c1ccccc1Cl [clofedanol] | 93.4% | 89.6% | 103% | 95.8% | 72.5% | 101% | 106% | 102% | 101% | 96.4% | 93.7% | 97.1% | 101% | 94.2% | 113% | 99.2% | 98.1% | 92.7% | 102% | 100% | 104% | 96.5% | 99.5% | 88.9% | 101% |  | > 10 µM | > 10 µM | > 10 µM | 1.8 | 0 | 0 | 0 | 0 | > 10 µM |
| Cc1ncc(CSSCc2cnc(C)c(O)c2CO)c(CO)c1O [pyritinol] | 99.8% | 87.4% | 94.5% | 100% | 92.7% | 96.1% | 105% | 94.4% | 99.2% | 105% | 90% | 97.7% | 108% | 95.8% | 97.8% | 103% | 100% | 96.6% | 101% | 98.3% |  |  |  |  |  | > 10 µM | > 10 µM | > 10 µM |  | 0 | 0 | 0 | 0 |  | > 10 µM |
| N[C@H](Cc1c[nH]cn1)C(=O)O [copper-histidine] | 106% | 102% | 107% | 98.8% | 107% | 105% | 94.4% | 84.8% | 82.1% | 99.5% | 110% | 98.7% | 103% | 104% | 89.3% | 101% | 96.1% | 95.8% | 97.3% | 97.3% |  |  |  |  |  | > 10 µM | > 10 µM | > 10 µM |  | 0 | 0.1 | 0 | 0 |  | > 10 µM |
| CN(C)CCCO[C@@H]1[C@H]2OC(C)(C)O[C@H]2O[C@@H]1[C@H](O)CO [amiprilose] | 107% | 86.8% | 101% | 95.1% | 97.3% | 98.7% | 102% | 98% | 101% | 100% | 91.3% | 102% | 97.3% | 99.6% | 85.8% | 102% | 99.8% | 100% | 103% | 101% |  |  |  |  |  | > 10 µM | > 10 µM | > 10 µM |  | 0 | 0 | 0.2 | 0 |  | > 10 µM |
| O=C1CN(/N=C/c2ccc([N+](=O)[O-])o2)C(=O)N1 [nitrofurantoin] | 101% | 101% | 95.8% | 89.9% | 103% | 106% | 111% | 97.6% | 94.3% | 102% | 98.4% | 111% | 113% | 109% | 60% | 104% | 97.9% | 101% | 101% | 103% | 92.4% | 95.1% | 98.4% | 96.7% | 97.4% | > 10 µM | > 10 µM | > 10 µM | > 10 µM | 0 | 0 | 1.5 | 0 | 0 |  |
| Oc1c(I)cc(I)c2cccnc12 [iodoquinol] | 107% | 94.3% | 97.1% | 96.3% | 63.1% | 106% | 98.6% | 99.7% | 93.4% | 98.4% | 109% | 99% | 93.7% | 99.9% | 36.1% | 104% | 100% | 102% | 98.5% | 85.2% | 100% | 106% | 100% | 99.8% | 68.1% |  | > 10 µM | > 10 µM |  | 2.4 | 0 | 3.5 | 0.4 | 1.5 | 3.15 µM |
| O=C1[C@@H]2[C@H]3CC[C@H](C3)[C@@H]2C(=O)N1C[C@@H]1CCCC[C@H]1CN1CCN(c2nsc3ccccc23)CC1 [lurasidone] | 94.5% | 100% | 99.6% | 104% | 64.5% | 99.8% | 97.8% | 105% | 94.7% | 105% | 106% | 106% | 99.5% | 96.9% | 89.2% | 104% | 107% | 95.9% | 102% | 88.4% | 104% | 102% | 103% | 99.6% | 97.2% |  | > 10 µM | > 10 µM | > 10 µM | 1.4 | 0 | 0.1 | 0 | 0 | > 10 µM |
| CC(=C(CCOC(=O)C(C)C)SSC(CCOC(=O)C(C)C)=C(C)N(C=O)Cc1cnc(C)nc1N)N(C=O)Cc1cnc(C)nc1N (stereo in doubt) [sulbutiamine] | 90.8% | 105% | 70.2% | 98.5% | 81.8% | 109% | 111% | 112% | 105% | 89.1% | 101% | 84.5% | 112% | 95.3% | 97.4% | 101% | 106% | 105% | 101% | 92.8% | 100% | 84.3% | 98.7% | 89.2% | 95.1% |  | > 10 µM | > 10 µM | > 10 µM | 1.2 | 0 | 0 | 0 | 0 | > 10 µM |
| Clc1ccc(CSC(Cn2ccnc2)c2ccc(Cl)cc2Cl)cc1 (centres undefined) [sulconazole] | 99.5% | 92.7% | 97.3% | 94% | 63.5% | 107% | 95.5% | 102% | 110% | 96.7% | 86.9% | 87.4% | 102% | 99.1% | 98.1% | 97.5% | 101% | 96% | 101% | 93.7% | 106% | 104% | 104% | 95.4% | 94.6% |  | > 10 µM | > 10 µM | > 10 µM | 2.7 | 0 | 0 | 0 | 0 | > 10 µM |
| Nc1ccc(F)cc1NC(=O)c1ccc(CNC(=O)/C=C/c2cccnc2)cc1 [chidamide] | 95.3% | 104% | 97.1% | 85.1% | 55.9% | 113% | 101% | 89.4% | 49.1% | 35.1% | 97.6% | 105% | 91.4% | 69.4% | 28.1% | 101% | 103% | 104% | 77.6% | 9.8% | 95.6% | 99.7% | 95.4% | 100% | 67.5% |  | 0.365 µM | 1.56 µM |  | 4.1 | 10.7 | 7.4 | 8.4 | 1.4 | 1.17 µM |
| CCCCCCCCCCCCOCCOCCOCCOCCOCCOCCOCCOCCOCCO [polidocanol] | 85.7% | 105% | 99.9% | 108% | 69.7% | 106% | 105% | 99.6% | 106% | 91.5% | 105% | 98.5% | 124% | 111% | 28.9% | 91.5% | 103% | 95.4% | 101% | 90.4% | 99.5% | 89.7% | 104% | 108% | 116% |  | > 10 µM | > 10 µM | > 10 µM | 1 | 0 | 3.3 | 0 | 0 | 3.8 µM |
| CC1(C)CCC[C@]2(C)[C@H]3CC(=O)O[C@]3(C)CC[C@@H]12 [Sclareolide (Norambreinolide)] | 95.7% | 96.6% | 92.7% | 102% | 88.5% | 100% | 104% | 99.4% | 107% | 87.6% | 106% | 99.1% | 108% | 101% | 100% | 100% | 100% | 97% | 99.5% | 99.5% |  |  |  |  |  | > 10 µM | > 10 µM | > 10 µM |  | 0 | 0 | 0 | 0 |  | > 10 µM |
